Drawing on patent JPH10251228A, “ニューロキニンアンタゴニストとしてのピペリジン誘導体” (Schering Plough Corp, priority 1997, dated 1998), this text covers Ki for five compounds.

Assay [1] deals with T1, human NK-1 receptor (ヒトNK-1レセプター) (Homo sapiens, UniProt P25103).
T1 construct: expressed in transfected cells; host or cells: Chinese hamster ovary (CHO) cells, G418-selected; membranes prepared
The assay can be described thus: Neurokinin receptor binding assay, human NK1 ([3H]-substance P displacement, transfected CHO cell membranes).

The target of assay [2] is T2, human NK-2 receptor (ヒトNK-2レセプター) (Homo sapiens, UniProt P21452).
T2 construct: expressed in transfected cells; host or cells: Chinese hamster ovary (CHO) cells, G418-selected; membranes prepared
T2 sequence (P21452 1-398): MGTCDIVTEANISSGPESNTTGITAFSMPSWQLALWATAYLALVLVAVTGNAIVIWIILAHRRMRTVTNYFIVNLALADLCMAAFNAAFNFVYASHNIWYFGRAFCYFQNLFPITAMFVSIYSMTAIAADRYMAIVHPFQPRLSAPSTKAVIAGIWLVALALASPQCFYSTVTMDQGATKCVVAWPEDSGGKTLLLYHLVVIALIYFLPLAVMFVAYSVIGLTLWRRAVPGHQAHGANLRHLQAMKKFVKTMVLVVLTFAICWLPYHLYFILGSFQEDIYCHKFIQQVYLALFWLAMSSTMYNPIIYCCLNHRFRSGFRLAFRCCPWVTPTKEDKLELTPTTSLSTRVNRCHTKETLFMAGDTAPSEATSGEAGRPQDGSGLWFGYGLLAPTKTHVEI
As to the kind of experiment: Neurokinin receptor binding assay, human NK2 ([3H]-neurokinin A displacement, transfected CHO cell membranes).

Where [3] appears, read: neurokinin receptor binding assay, [3H]-neurokinin A 1.0 nM, CHO membranes, Cheng-Prusoff, read-out: NK2 Ki (binding).

Read-outs that look alike come from different tables or passages of the source.

T1 sequence (P25103 whole entry): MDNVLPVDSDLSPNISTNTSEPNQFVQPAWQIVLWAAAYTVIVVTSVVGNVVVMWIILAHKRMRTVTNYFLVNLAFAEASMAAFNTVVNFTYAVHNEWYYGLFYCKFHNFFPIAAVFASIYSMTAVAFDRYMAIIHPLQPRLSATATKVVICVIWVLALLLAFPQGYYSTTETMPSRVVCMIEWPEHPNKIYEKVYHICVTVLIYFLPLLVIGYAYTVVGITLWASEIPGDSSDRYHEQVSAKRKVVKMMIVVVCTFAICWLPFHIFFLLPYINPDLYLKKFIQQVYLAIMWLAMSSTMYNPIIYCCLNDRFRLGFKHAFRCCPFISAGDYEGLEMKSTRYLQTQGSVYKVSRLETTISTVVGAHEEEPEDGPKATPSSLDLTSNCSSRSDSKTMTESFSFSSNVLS

A word on the Ki: it is a measure of affinity in units of concentration, obtained from inhibition or displacement. For `COc1ccccc1CN(C)C(=O)CC(CCN1CCC(O)(c2ccccc2)CC1)c1ccc(Cl)c(Cl)c1` (stereo not drawn) [β-(3,4-ジクロロフェニル)-4-ヒドロキシ-N-[(2-メトキシフェニル)メチル]-N-メチル-4-フェニル-1-ピペリジンペンタミド], the Ki in assay [1] worked out at 7.5 nM; in assay [2], 33 nM.

Regarding `COc1cccc(CN(C)C(=O)CC(CCN2CCC(O)(c3ccccc3)CC2)c2ccc(Cl)c(Cl)c2)c1` (stereo not drawn) [β-(3,4-ジクロロフェニル)-4-ヒドロキシ-N-[(3-メトキシフェニル)メチル]-N-メチル-4-フェニル-1-ピペリジンペンタミド], the Ki in assay [1] was determined as 12 nM; in assay [2] (setting [3]) it was 215 nM.

Turning to `CN(CCc1ccccc1)C(=O)CC(CCN1CCC(O)(c2ccccc2)CC1)c1ccc(Cl)c(Cl)c1` (stereo not drawn) [β-(3,4-ジクロロフェニル)-4-ヒドロキシ-N-メチル-4-フェニル-N-(2-フェニルエチル)-1-ピペリジンペンタミド], the Ki in assay [1] was 70 nM; in assay [2], 46 nM.

Consider `CN(Cc1ccccc1)C(=O)CC(CCN1CCC(O)(c2ccccc2)CC1)c1ccc(Cl)c(Cl)c1` (stereo not drawn) [β-(3,4-ジクロロフェニル)-4-ヒドロキシ-N-メチル-4-フェニル-N-(フェニルメチル)-1-ピペリジンペンタミド], for which the Ki in assay [1] was 6.8 nM; in assay [2] (setting [3]), 108 nM.

As to `CN(C(=O)CC(CCN1CCC(O)(c2ccccc2)CC1)c1ccc(Cl)c(Cl)c1)c1ccccc1` (stereo not drawn) [β-(3,4-ジクロロフェニル)-4-ヒドロキシ-N-メチル-N,4-ジフェニル-1-ピペリジンペンタミド], the Ki in assay [1] (neurokinin receptor binding assay, [3H]-substance P 0.8 nM, CHO membranes, Cheng-Prusoff, read-out: NK1 Ki (binding)) stood at 150 nM; in assay [2], 5.2 nM.
